Reference: paper PMC11926788, “Effect of SSR504734, a Selective Glycine Transporter Type 1 Inhibitor, on Seizure Thresholds, Neurotransmitter Levels, and Inflammatory Markers in Mice” (ACS Chemical Neuroscience, 2025)
Counter-ions that a name gives are not always drawn.

Experiment: Metabolic stability in human liver microsomes (HLMs)
Format: in vitro ADME
Procedure: A series of in vitro ADME-Tox tests were performed for SSR504734 in order to estimate its drugability. The ADME-Tox parameters including permeability, plasma protein binding, metabolic stability, neurotoxicity, and hepatotoxicity were carried out as described previously.[31],[32] The ability of SSR504734 to penetrate through the biological membrane by passive diffusion was estimated by the Gentest Precoated PAMPA Plate System (Corning, Tewksbury, MA) and expressed as the permeability coefficient (Pe). The protein binding analysis was performed by using the commercial TRANSIL^XL PPB test, which mimics in vitro physiological plasma conditions where human serum albumin (HAS) and alpha-1-acid glycoprotein AGP are present in a 24:1 ratio. The human metabolism of SSR504734 was studied using human liver microsomes (HLMs) provided by Sigma-Aldrich. The hepatotoxicity and neurotoxicity were estimated in cellular models with the use of hepatoma HepG2 and neuroblastoma SH-SY5Y cell lines to perform the preliminary safety tests. The cells were incubated with SSR504734 at the concentration range of 0.1–100 μM. 1 μM cytostatic drug doxorubicin (DX) was used as the reference.

## O=C(NC(c1ccccc1)C1CCCCN1)c1cccc(C(F)(F)F)c1Cl [SSR504734, 2-chloro-N-[(S)-phenyl[(2S)-piperidin-2-yl]methyl]-3-trifluoromethyl benzamide monohydrochloride]
120 min incubation with HLMs, UPLC analysis
  metabolized: 5%
After 120 min of incubation with human liver microsomes
  remaining at 2 h: 94.7%
After incubation with HLMs
  metabolic pathway, metabolite M1: hydroxylation, oxidation, and dehydrogenation
  metabolic pathway, metabolite M2: dehydrogenation
  metabolic pathway, metabolite M3: oxidation
